Common to all, as to format: biochemical
Assay [1] addresses JAK3 (Homo sapiens (Human), UniProt P52333). Nature of the assay: Inhibition of JAK, luminescence kinase assay (ADP-Glo), JAK3. The note with it: purified recombinant JAK3. Here is the method: (§1) The study of the effect of compounds on the activity of purified recombinant JAK was performed by studying the inhibitory activity of the compounds on JAK from the enzymatic level. The experimental principle is to use a luminescence kinase assay to detect the ADP content produced by the reaction of JAK with the substrate Poly (4:1 Glu, Tyr) peptide: after ADP is converted to ATP, ATP can act as a substrate for the Ultra-Glo luciferase catalytic reaction, producing an optical signal. The luminescence signal is positively correlated with the amount of ADP and kinase activity. Therefore, the inhibitory effect of the compounds on the recombinant JAK was determined by observing the luminescence signal produced by the reaction of JAK and the substrate, and was expressed by IC50.
(§2) Experimental method: 10 different concentrations of compounds were incubated with JAK1, JAK2 and JAK3, respectively, for 60 minutes at 37° C. The substrate and ATP were then added, mixed, and reacted at 37° C. for 50 minutes. 25 μl of ADP-Glo™ was added and mixed for 2 minutes. The reaction was carried out for 50 minutes at room temperature. Further, 50 μl of the detection reagent was added and mixed for 2 minutes, and incubated at room temperature for 50 minutes, and detected by a chemiluminometer.

Assay [2] concerns the target JAK1 (Homo sapiens (Human), UniProt P23458). The experiment in a line: Inhibition of JAK, luminescence kinase assay (ADP-Glo), JAK1. The note with it: for IC50: purified recombinant JAK1. On the procedure: as §1, §2
Background: ADP-Glo first removes unused ATP, then detects ADP through luciferase.

Assay [3] concerns the target JAK2 (Homo sapiens (Human), UniProt O60674). Nature of the assay: Inhibition of JAK, luminescence kinase assay (ADP-Glo), JAK2. Conditions: purified recombinant JAK2. On the procedure: as §1, §2
[4] abbreviates: Table 2, same experimental conditions.

Bounds are passed on as bounds.

We go through 18 compounds from patent US11279699B2 (Suzhou Longbiotech Pharmaceuticals Co., Ltd., priority 2016, dated 2022).

The IC50 is the concentration at which inhibition is half-maximal.

Sequence of JAK1 (P23458 whole entry): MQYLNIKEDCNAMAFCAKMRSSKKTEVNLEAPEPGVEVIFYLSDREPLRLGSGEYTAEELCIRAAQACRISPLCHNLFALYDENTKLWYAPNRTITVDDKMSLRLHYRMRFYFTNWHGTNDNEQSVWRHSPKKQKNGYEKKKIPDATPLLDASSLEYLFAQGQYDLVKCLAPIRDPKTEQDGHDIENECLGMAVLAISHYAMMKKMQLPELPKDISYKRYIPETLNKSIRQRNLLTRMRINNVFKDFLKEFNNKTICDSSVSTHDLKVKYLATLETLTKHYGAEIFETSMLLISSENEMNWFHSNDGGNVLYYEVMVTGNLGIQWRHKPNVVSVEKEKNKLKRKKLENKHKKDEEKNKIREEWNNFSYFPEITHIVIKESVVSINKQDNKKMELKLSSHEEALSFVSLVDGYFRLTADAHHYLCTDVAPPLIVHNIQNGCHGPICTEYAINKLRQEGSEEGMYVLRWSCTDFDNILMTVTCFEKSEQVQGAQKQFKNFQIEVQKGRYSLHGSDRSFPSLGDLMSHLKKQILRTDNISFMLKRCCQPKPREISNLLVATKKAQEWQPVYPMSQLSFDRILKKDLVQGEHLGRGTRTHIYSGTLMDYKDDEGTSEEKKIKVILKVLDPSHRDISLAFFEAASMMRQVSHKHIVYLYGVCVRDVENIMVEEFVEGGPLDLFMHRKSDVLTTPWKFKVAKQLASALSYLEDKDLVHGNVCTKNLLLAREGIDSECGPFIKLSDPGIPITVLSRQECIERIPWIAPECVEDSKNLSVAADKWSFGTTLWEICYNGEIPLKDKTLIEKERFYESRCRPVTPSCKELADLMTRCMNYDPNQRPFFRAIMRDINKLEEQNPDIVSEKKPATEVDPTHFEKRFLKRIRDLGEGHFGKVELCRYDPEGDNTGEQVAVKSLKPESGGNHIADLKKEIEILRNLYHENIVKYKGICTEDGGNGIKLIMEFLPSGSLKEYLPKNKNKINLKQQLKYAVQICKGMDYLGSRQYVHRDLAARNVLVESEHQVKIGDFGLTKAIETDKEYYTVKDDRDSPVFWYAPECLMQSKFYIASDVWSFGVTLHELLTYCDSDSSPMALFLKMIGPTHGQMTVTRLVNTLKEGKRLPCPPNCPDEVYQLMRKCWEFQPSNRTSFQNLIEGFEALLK
Sequence of JAK3 (P52333 whole entry): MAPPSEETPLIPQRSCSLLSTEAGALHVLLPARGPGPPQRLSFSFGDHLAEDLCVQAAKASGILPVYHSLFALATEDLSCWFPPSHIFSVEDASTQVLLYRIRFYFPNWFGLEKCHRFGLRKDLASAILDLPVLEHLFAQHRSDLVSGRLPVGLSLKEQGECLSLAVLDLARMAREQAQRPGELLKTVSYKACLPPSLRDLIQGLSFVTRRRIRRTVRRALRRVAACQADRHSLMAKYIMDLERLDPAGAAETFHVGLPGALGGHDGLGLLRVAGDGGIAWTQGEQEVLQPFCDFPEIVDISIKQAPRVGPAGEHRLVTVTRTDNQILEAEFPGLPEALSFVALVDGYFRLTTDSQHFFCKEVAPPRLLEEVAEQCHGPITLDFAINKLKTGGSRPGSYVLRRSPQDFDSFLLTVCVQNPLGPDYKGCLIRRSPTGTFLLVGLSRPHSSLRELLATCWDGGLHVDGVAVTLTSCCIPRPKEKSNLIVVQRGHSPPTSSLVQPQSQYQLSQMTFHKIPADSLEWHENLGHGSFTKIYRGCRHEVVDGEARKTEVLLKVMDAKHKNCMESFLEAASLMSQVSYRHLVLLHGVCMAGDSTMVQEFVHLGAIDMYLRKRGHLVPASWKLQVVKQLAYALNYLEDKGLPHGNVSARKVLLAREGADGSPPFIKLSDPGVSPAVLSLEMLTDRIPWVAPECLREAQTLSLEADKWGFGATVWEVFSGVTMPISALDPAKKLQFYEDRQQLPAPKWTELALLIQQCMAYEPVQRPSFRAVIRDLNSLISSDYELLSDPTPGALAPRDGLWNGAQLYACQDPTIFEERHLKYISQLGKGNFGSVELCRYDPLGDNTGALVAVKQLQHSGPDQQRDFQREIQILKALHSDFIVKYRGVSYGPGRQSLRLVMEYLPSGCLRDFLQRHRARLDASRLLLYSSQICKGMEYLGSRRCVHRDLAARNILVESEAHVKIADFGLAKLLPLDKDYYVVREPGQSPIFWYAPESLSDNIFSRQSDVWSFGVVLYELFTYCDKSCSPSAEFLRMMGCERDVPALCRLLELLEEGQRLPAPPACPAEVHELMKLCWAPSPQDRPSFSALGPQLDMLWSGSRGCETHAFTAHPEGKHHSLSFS
Sequence of JAK2 (O60674 whole entry): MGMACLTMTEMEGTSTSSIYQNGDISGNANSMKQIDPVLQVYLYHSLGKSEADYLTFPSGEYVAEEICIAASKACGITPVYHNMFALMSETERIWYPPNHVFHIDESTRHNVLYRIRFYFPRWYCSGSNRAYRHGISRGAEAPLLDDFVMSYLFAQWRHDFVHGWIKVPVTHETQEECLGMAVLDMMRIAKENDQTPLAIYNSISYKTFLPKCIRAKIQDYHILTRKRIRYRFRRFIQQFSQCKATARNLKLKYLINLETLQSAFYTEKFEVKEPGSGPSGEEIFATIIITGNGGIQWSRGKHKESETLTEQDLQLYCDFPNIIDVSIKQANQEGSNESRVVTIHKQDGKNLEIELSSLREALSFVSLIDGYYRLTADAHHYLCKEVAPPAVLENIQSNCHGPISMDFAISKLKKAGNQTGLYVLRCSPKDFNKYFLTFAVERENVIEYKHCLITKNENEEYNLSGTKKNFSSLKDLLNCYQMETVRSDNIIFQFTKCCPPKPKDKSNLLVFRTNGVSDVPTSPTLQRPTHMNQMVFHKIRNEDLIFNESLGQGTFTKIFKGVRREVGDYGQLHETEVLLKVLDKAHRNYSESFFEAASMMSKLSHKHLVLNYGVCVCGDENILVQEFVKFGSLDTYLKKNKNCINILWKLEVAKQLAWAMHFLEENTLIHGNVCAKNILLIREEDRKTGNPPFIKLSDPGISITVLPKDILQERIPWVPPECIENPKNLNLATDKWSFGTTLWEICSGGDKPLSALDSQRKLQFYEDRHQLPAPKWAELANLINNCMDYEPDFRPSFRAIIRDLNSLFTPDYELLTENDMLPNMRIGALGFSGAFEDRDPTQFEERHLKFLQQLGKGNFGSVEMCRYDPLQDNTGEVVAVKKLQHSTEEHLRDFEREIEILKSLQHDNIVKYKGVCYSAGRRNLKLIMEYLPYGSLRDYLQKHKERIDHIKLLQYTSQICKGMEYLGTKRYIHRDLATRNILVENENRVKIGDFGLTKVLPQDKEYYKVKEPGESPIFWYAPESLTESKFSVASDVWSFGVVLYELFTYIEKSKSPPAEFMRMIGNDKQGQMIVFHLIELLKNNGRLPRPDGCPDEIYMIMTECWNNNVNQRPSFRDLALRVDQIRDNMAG

For `CS(=O)(=O)C1CN(Cc2ccc(-c3cccn4nc(N)nc34)cc2)C1` [Example 17, 8-(4-((3-(methylsulfonyl)azetidin-1-yl)methyl)phenyl)-[1,2,4]triazolo[1,5-a]pyridin-2-ylamine], the half-maximal inhibitory concentration (IC50) was 20 to 50 nM in assay [1] (Table 1), 20 to 50 nM in assay [2] (Table 1) and more than 50 nM in assay [3] (Table 1).
On to `CS(=O)(=O)C1CN(Cc2ccc(-c3cccc4nc(NC(=O)C5CC5)nn34)cc2)C1` [Example 1, N-(5-(4-((3-(methylsulfonyl)azetidin-1-yl)methyl)phenyl)-[1,2,4]triazolo[1,5-a]pyridin-2-yl]cyclopropanecarboxamide], for which the 50% inhibitory concentration (IC50) in assay [1] (Table 1) was more than 50 nM; in assay [1] (setting [4]), 2430 nM; in assay [2] (Table 1) it was 20 to 50 nM; in assay [2] (setting [4]), 48 nM; in assay [3] (Table 1), more than 50 nM; in assay [3] (setting [4]), 498 nM. The “inhibitory activity against JAK1 relative to JAK2 (selectivity)” value in assay [2] (JAK1 versus JAK2, from Table 2) worked out at 10 times.
With `CCS(=O)(=O)C1CN(Cc2ccc(-c3cccn4nc(N)nc34)cc2)C1` [Example 18, 8-(4-((3-(ethylsulfonyl)azetidin-1-yl)methyl)phenyl)-[1,2,4]triazolo[1,5-a]pyridin-2-ylamine], the IC50 in assay [1] (Table 1), in assay [2] (Table 1) and in assay [3] (Table 1) was more than 50 nM in each case.
Regarding `CCS(=O)(=O)C1CN(Cc2ccc(-c3cccc4nc(NC(=O)C5CC5)nn34)cc2)C1` [Example 7, N-(5-(4-((3-(ethylsulfonyl)azetidin-1-yl)methyl)phenyl)-[1,2,4]triazolo[1,5-a]pyridin-2-yl]cyclopropanecarboxamide], the IC50 is 20 to 50 nM in assay [2] (Table 1) and more than 50 nM in assay [3] (Table 1).
In the case of `CS(=O)(=O)C1CN(Cc2ccc(-c3cccc4nc(NC(=O)C5CC5)nn34)cc2F)C1` [Example 2, N-(5-(3-fluoro-4-((3-(methylsulfonyl)azetidin-1-yl)methyl)phenyl)-[1,2,4]triazolo[1,5-a]pyridin-2-yl]cyclopropanecarboxamide], the IC50 in assay [2] (Table 1) is 20 to 50 nM.
Take `O=C(Nc1nc2c(-c3ccc(CN4CC(S(=O)(=O)C5CC5)C4)cc3)cccn2n1)C1CC1` [Example 10, N-(8-(4-((3-(cyclopropylsulfonyl)azetidin-1-yl)methyl)phenyl)-[1,2,4]triazolo[1,5-a]pyridin-2-yl]cyclopropanecarboxamide]: the IC50 in assay [1] (Table 1), in assay [2] (Table 1) and in assay [3] (Table 1) was more than 50 nM each time.
Take `CS(=O)(=O)C1CN(Cc2c(F)cc(-c3cccc4nc(NC(=O)C5CC5)nn34)cc2F)C1` [Example 3, N-(5-(3,5-difluoro-4-((3-(methylsulfonyl)azetidin-1-yl)methyl)phenyl)-[1,2,4]triazolo[1,5-a]pyridin-2-yl]cyclopropanecarboxamide]: the half-maximal inhibitory concentration (IC50) is more than 50 nM in assay [1] (Table 1), 20 to 50 nM in assay [2] (Table 1) and more than 50 nM in assay [3] (Table 1).
For the compound `O=S1(=O)CCN(Cc2ccc(-c3ncnc4[nH]ccc34)cc2)CC1` [Example 19, 4-(4-(7H-pyrrolo[2,3-d]pyrimidin-4-yl)benzyl)thiomorpholine 1,1-dioxide], the IC50 in assay [1] (Table 1) is more than 50 nM; in assay [2] (Table 1), less than 20 nM; in assay [3] (Table 1), more than 50 nM.
Turning to `CCS(=O)(=O)C1CN(Cc2ccc(-c3cccn4nc(NC(=O)C5CC5)nc34)cc2)C1` [Example 11, N-(8-(4-((3-(ethylsulfonyl)azetidin-1-yl)methyl)phenyl)-[1,2,4]triazolo[1,5-a]pyridin-2-yl]cyclopropanecarboxamide], the IC50 was more than 50 nM in assay [1] (Table 1), 20 to 50 nM in assay [2] (Table 1) and more than 50 nM in assay [3] (Table 1).
For the compound `CS(=O)(=O)C1CN(Cc2c(F)cc(-c3cccn4nc(NC(=O)C5CC5)nc34)cc2F)C1` [Example 16, N-(8-(3,5-difluoro-4-((3-(methylsulfonyl)azetidin-1-yl)methyl)phenyl)-[1,2,4]triazolo[1,5-a]pyridin-2-yl]cyclopropanecarboxamide], the 50% inhibitory concentration (IC50) in assay [1] (Table 1), in assay [2] (Table 1) and in assay [3] (Table 1) was more than 50 nM throughout.
`CCS(=O)(=O)C1CN(Cc2ccc(-c3cccc4nc(NC(=O)C(C)C)nn34)cc2)C1` [Example 6, N-(5-(4-((3-(ethylsulfonyl)azetidin-1-yl)methyl)phenyl)-[1,2,4]triazolo[1,5-a]pyridin-2-yl]isobutyramide]: the 50% inhibitory concentration (IC50) in assay [1] (Table 1), in assay [2] (Table 1) and in assay [3] (Table 1) was more than 50 nM throughout.
Consider `CS(=O)(=O)C1CN(Cc2ccc(-c3cccn4nc(NC(=O)C5CC5)nc34)cc2)C1` [Example 9, N-(8-(4-((3-(methylsulfonyl)azetidin-1-yl)methyl)phenyl)-[1,2,4]triazolo[1,5-a]pyridin-2-yl]cyclopropanecarboxamide], for which the 50% inhibitory concentration (IC50) in assay [1] (Table 1) was more than 50 nM; in assay [2] (Table 1), 20 to 50 nM; in assay [3] (Table 1) it was more than 50 nM.
`CS(=O)(=O)C1CN(Cc2ccc(-c3cccn4nc(NC(=O)C5CC5)nc34)cc2F)C1` [Example 15, N-(8-(3-fluoro-4-((3-(methylsulfonyl)azetidin-1-yl)methyl)phenyl)-[1,2,4]triazolo[1,5-a]pyridin-2-yl]cyclopropanecarboxamide]: the IC50 in assay [2] (Table 1) fell in the range of 20 to 50 nM.
Regarding `CCS(=O)(=O)C1CN(Cc2ccc(-c3cccn4nc(NC(=O)C(C)C)nc34)cc2)C1` [Example 14, N-(8-(4-((3-(ethylsulfonyl)azetidin-1-yl)methyl)phenyl)-[1,2,4]triazolo[1,5-a]pyridin-2-yl]isobutyramide], the IC50 in assay [1] (Table 1) is more than 50 nM; in assay [2] (Table 1), 20 to 50 nM; in assay [3] (Table 1), more than 50 nM.
Regarding `CS(=O)(=O)C1CN(Cc2ccc(-c3cccc4nc(N)nn34)cc2)C1` [Example 8, 5-(4-((3-(methylsulfonyl)azetidin-1-yl)methyl)phenyl)-[1,2,4]triazolo[1,5-a]pyridin-2-ylamine], the half-inhibitory concentration (IC50) is 20 to 50 nM in assay [1] (Table 1), 20 to 50 nM in assay [2] (Table 1) and more than 50 nM in assay [3] (Table 1).
Take `CC(C)C(=O)Nc1nc2cccc(-c3ccc(CN4CC(S(=O)(=O)C5CC5)C4)cc3)n2n1` [Example 5, N-(5-(4-((3-(cyclopropylsulfonyl)azetidin-1-yl)methyl)phenyl)-[1,2,4]triazolo[1,5-a]pyridin-2-yl]isobutyramide]: the concentration for half-maximal inhibition (IC50) in assay [2] (Table 1) was 20 to 50 nM; in assay [3] (Table 1), more than 50 nM.
With `CC(C)C(=O)Nc1nc2c(-c3ccc(CN4CC(S(=O)(=O)C5CC5)C4)cc3)cccn2n1` [Example 13, N-(8-(4-((3-(cyclopropylsulfonyl)azetidin-1-yl)methyl)phenyl)-[1,2,4]triazolo[1,5-a]pyridin-2-yl]isobutyramide], the concentration for half-maximal inhibition (IC50) in assay [1] (Table 1) was more than 50 nM; in assay [2] (Table 1) it was 20 to 50 nM; in assay [3] (Table 1) it was more than 50 nM.
In the case of `CC(C)C(=O)Nc1nc2c(-c3ccc(CN4CC(S(C)(=O)=O)C4)cc3)cccn2n1` [Example 12], the IC50 in assay [1] (Table 1) is more than 50 nM; in assay [2] (Table 1), 20 to 50 nM; in assay [3] (Table 1), more than 50 nM.
